Data reported in patent publication US11136296B2, “Substituted N-arylethyl-2-arylquinoline-4-carboxamides and use thereof” (Bayer Aktiengesellschaft, priority 2017, dated 2021).
pIC50: −log10 of the molar value.

biological target: FP receptor (Homo sapiens (Human), UniProt P43088); assay: In vitro test of inhibition of human FP receptor activity (PGF2α-induced calcium flux in FP-expressing CHEM1 cells); assay type: cell-based; conditions: PGF2α-induced (2 nM) calcium flux in FP-expressing CHEM1 cells; some as mean values from multiple determinations
From the text: Table 1 below lists the IC50 values from this assay for individual working examples of the invention (some as mean values from multiple independent individual determinations): […]

FP receptor, sequence (P43088 whole entry): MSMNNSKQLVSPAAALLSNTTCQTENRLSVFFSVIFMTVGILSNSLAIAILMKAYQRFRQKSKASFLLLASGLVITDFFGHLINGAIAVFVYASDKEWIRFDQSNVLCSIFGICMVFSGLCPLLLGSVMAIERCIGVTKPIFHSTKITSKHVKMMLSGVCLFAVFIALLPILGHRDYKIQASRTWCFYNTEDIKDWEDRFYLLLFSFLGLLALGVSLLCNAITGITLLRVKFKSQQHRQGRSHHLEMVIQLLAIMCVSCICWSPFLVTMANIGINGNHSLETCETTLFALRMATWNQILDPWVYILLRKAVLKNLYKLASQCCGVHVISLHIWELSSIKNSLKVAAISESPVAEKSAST

Row | Compound | pIC50
1 | Cc1c(-c2ccccc2)nc2ccc(Br)cc2c1C(=O)NCC(CCC(=O)O)c1cccc(F)c1Cl (single isomer, unassigned; (-)) [Example 185, (−)-5-{[(6-Bromo-3-methyl-2-phenylquinolin-4-yl)carbonyl]amino}-4-(2-chloro-3-fluorophenyl)pentanoic Acid] | 8.41
2 | Cc1c(-c2ccccc2)nc2ccc(Br)cc2c1C(=O)NCC(CCC(=O)O)c1cccc(F)c1Cl (racemic) [Example 184, (+/−)-5-{[(6-Bromo-3-methyl-2-phenylquinolin-4-yl)carbonyl]amino}-4-(2-chloro-3-fluorophenyl)pentanoic Acid] | 8.11
3 | Cc1c(-c2ccccc2)nc2ccc(Br)cc2c1C(=O)NCC(CCC(=O)O)c1c(F)cccc1C(F)(F)F (single isomer, unassigned; (+)) [Example 226, (+)-5-{[(6-Bromo-3-methyl-2-phenylquinolin-4-yl)carbonyl]amino}-4-[2-fluoro-6-(trifluoromethyl)phenyl]pentanoic Acid] | 7.00
4 | Cc1c(-c2ccccc2)nc2ccc(Br)cc2c1C(=O)NCC(C)(CCC(=O)O)c1ccccc1Cl (single isomer, unassigned; (+)) [Example 156, (+)-5-{[(6-Bromo-3-methyl-2-phenylquinolin-4-yl)carbonyl]amino}-4-(2-chlorophenyl)-4-methylpentanoic Acid] | 8.10
5 | Cc1c(-c2ccccc2)nc2ccc(Br)cc2c1C(=O)NCC(C)(CC(=O)O)c1ccccn1 (single isomer, unassigned; (+)) [Example 118, (+)-4-{[(6-Bromo-3-methyl-2-phenylquinolin-4-yl)carbonyl]amino}-3-methyl-3-(pyridin-2-yl)butanoic Acid] | 6.55
6 | O=C(O)CCC(CNC(=O)c1c(Cl)c(-c2ccccc2)nc2ccc(Br)cc12)c1c(F)ccc(F)c1Cl (single isomer, unassigned; (-)) [Example 222, (−)-5-{[(6-Bromo-3-chloro-2-phenylquinolin-4-yl)carbonyl]amino}-4-(2-chloro-3,6-difluorophenyl)pentanoic Acid] | 9.02
7 | Cc1c(-c2ccccc2)nc2ccc(Br)cc2c1C(=O)NCC(F)(C(=O)O)c1ccccc1 (single isomer, unassigned; (+)) [Example 40, (+)-3-{[(6-Bromo-3-methyl-2-phenylquinolin-4-yl)carbonyl]amino}-2-fluoro-2-phenylpropanoic Acid] | 7.47
8 | Cc1c(-c2ccccc2)nc2ccc(Br)cc2c1C(=O)NCC(C(=O)O)c1cccc(Cl)c1 (single isomer, unassigned; (+)) [Example 49, (+)-3-{[(6-Bromo-3-methyl-2-phenylquinolin-4-yl)carbonyl]amino}-2-(3-chlorophenyl)propanoic Acid] | 7.16
9 | Cc1c(-c2ccccc2)nc2ccc(Br)cc2c1C(=O)NCC(C(=O)O)c1ccc(F)cc1 (racemic) [Example 10, (+/−)-3-{[(6-Bromo-3-methyl-2-phenylquinolin-4-yl)carbonyl]amino}-2-(4-fluorophenyl)propanoic Acid] | 6.49
10 | Cc1c(-c2ccccc2)nc2ccc(Br)cc2c1C(=O)NCC(C)(CCCC(=O)O)c1ccccc1Cl (racemic) [Example 240, (+/−)-6-{[(6-Bromo-3-methyl-2-phenylquinolin-4-yl)carbonyl]amino}-5-(2-chlorophenyl)-5-methylhexanoic Acid] | 7.62
11 | Cc1c(-c2ccccc2)nc2ccc(Br)cc2c1C(=O)NCC(CCC(=O)O)c1c(Cl)ccc(Cl)c1Cl (single isomer, unassigned; (-)) [Example 236, (−)-5-{[(6-Bromo-3-methyl-2-phenylquinolin-4-yl)carbonyl]amino}-4-(2,3,6-trichlorophenyl)pentanoic Acid] | 8.70
12 | Cc1c(-c2ccccc2)nc2ccc(Br)cc2c1C(=O)NCC(O)(C(=O)O)c1ccccc1 (racemic) [Example 19, (+/−)-3-{[(6-Bromo-3-methyl-2-phenylquinolin-4-yl)carbonyl]amino}-2-hydroxy-2-phenylpropanoic Acid] | 6.82

Next, values leading:

Row | pIC50 | Compound
13 | 7.10 | Cc1cccc(C(CNC(=O)c2c(C)c(-c3ccccc3)nc3ccc(Br)cc23)C(=O)O)c1 (racemic) [Example 50, (+/−)-3-{[(6-Bromo-3-methyl-2-phenylquinolin-4-yl)carbonyl]amino}-2-(3-methylphenyl)propanoic Acid]
14 | 7.85 | Cc1c(-c2ccccc2)nc2ccc(Br)cc2c1C(=O)NCC(CCC(=O)O)c1ccccc1F (centres unmarked) [compound 252]
15 | 7.41 | COc1cccc(F)c1C(CNC(=O)c1c(C)c(-c2ccccc2)nc2ccc(Br)cc12)CC(=O)O (racemic) [Example 126, (+/−)-4-{[(6-Bromo-3-methyl-2-phenylquinolin-4-yl)carbonyl]amino}-3-(2-fluoro-6-methoxyphenyl)butanoic Acid]
16 | 8.21 | COc1ccccc1C(CCC(=O)O)CNC(=O)c1c(C)c(-c2ccccc2)nc2ccc(Br)cc12 (racemic) [Example 166, (+/−)-5-{[(6-Bromo-3-methyl-2-phenylquinolin-4-yl)carbonyl]amino}-4-(2-methoxyphenyl)pentanoic Acid]
17 | 7.16 | Cc1ccccc1C(CNC(=O)c1c(C)c(-c2ccccc2)nc2ccc(Br)cc12)CC(=O)O (racemic) [Example 75, (+/−)-4-{[(6-Bromo-3-methyl-2-phenylquinolin-4-yl)carbonyl]amino}-3-(2-methylphenyl)butanoic Acid]
18 | < 6.00 | Cc1c(-c2ccccc2)nc2ccc(Br)cc2c1C(=O)NC(C)C(CC(=O)O)c1ccccc1Cl (single isomer, unassigned; (+)) [Example 147, (+)-4-{[(6-Bromo-3-methyl-2-phenylquinolin-4-yl)carbonyl]amino}-3-(2-chlorophenyl)pentanoic Acid]
19 | 7.12 | COc1cccnc1C(CNC(=O)c1c(C)c(-c2ccccc2)nc2ccc(Br)cc12)CC(=O)O (single isomer, unassigned; (-)) [Example 109, (−)-4-{[(6-Bromo-3-methyl-2-phenylquinolin-4-yl)carbonyl]amino}-3-(3-methoxypyridin-2-yl)butanoic Acid]
20 | 7.62 | COc1ccccc1C(CNC(=O)c1c(C)c(-c2ccccc2)nc2ccc(Br)cc12)C(=O)O (racemic) [Example 7, (+/−)-3-{[(6-Bromo-3-methyl-2-phenylquinolin-4-yl)carbonyl]amino}-2-(2-methoxyphenyl)propanoic Acid]
21 | 6.33 | Cc1ccc(C(CNC(=O)c2c(C)c(-c3ccccc3)nc3ccc(Br)cc23)CC(=O)O)cc1 (racemic) [Example 90, (+/−)-4-{[(6-Bromo-3-methyl-2-phenylquinolin-4-yl)carbonyl]amino}-3-(4-methylphenyl)butanoic Acid]
22 | 7.77 | Cc1c(-c2ccccc2)nc2ccc(Br)cc2c1C(=O)NCC(CCC(=O)O)c1cccc(F)c1Cl (single isomer, unassigned; (+)) [Example 186, (+)-5-{[(6-Bromo-3-methyl-2-phenylquinolin-4-yl)carbonyl]amino}-4-(2-chloro-3-fluorophenyl)pentanoic Acid]
23 | 6.47 | Cc1c(-c2ccccc2)nc2ccc(Br)cc2c1C(=O)NCC(CC(=O)O)c1ccccc1 (single isomer, unassigned; (-)) [Example 64, (−)-4-{[(6-Bromo-3-methyl-2-phenylquinolin-4-yl)carbonyl]amino}-3-phenylbutanoic Acid]
